Laboratory results from publication PMC7914897, “Cytotoxic Potential of a-Azepano- and 3-Amino-3,4-SeCo-Triterpenoids” (International Journal of Molecular Sciences, 2021).

Assays:
HL-60(TB) (Leukemia) = experiment: NCI-60 screen (SRB, 48 h); format: cell-based; conditions: Homo sapiens
BT-549 (Breast cancer) = experiment: NCI-60 screen (SRB, 48 h); format: cell-based; conditions: Homo sapiens; for GI50: BT-549; for IC (TGI): BT-549, 48 h
OVCAR-3 (Ovarian cancer) [1] = conditions: OVCAR-3, 1 dose 10 µM
OVCAR-3 (Ovarian cancer) [2] = experiment: cells; conditions: Homo sapiens; for GI50: OVCAR-3; for IC (TGI): OVCAR-3, 48 h, read-out: TGI
[3] = test system: MDA-MB-468 (Breast cancer); experiment: cells; conditions: Homo sapiens; for GI50: MDA-MB-468; for IC (TGI): MDA-MB-468, 48 h, read-out: TGI; for CC50: MDA-MB-468, read-out: LC50
NSC lung cancer subpanel = experiment: NCI-60 screen, subpanel; conditions: Homo sapiens; for IC (TGI): 48 h, read-out: TGI MG_MID; for GI50: read-out: GI50 MG_MID; for CC50: read-out: LC50 MG_MID
Colon Cancer subpanel = experiment: NCI-60 screen, subpanel; conditions: Homo sapiens; for IC (TGI): 48 h, read-out: TGI MG_MID; for GI50: read-out: GI50 MG_MID; for CC50: read-out: LC50 MG_MID
Renal Cancer subpanel = experiment: NCI-60 screen, subpanel; conditions: Homo sapiens; for IC (TGI): 48 h, read-out: TGI MG_MID; for GI50: read-out: GI50 MG_MID; for CC50: read-out: LC50 MG_MID
Prostate cancer subpanel = experiment: NCI-60 screen, subpanel; conditions: Homo sapiens; for IC (TGI): 48 h, read-out: TGI MG_MID; for GI50: read-out: GI50 MG_MID
Breast cancer subpanel = experiment: NCI-60 screen, subpanel; conditions: Homo sapiens; for IC (TGI): 48 h, read-out: TGI MG_MID; for GI50: read-out: GI50 MG_MID; for CC50: read-out: LC50 MG_MID
MOLT-4 (Leukemia) = experiment: NCI-60 screen (SRB, 48 h); conditions: Homo sapiens; for GI50: MOLT-4
EKVX (NSC lung cancer) = experiment: NCI-60 screen (SRB, 48 h); conditions: Homo sapiens; for IC (TGI): 48 h, read-out: TGI
[4] = test system: NCI-H322M (NSC lung cancer); experiment: NCI-60 screen (SRB, 48 h); conditions: Homo sapiens; for IC (TGI): 48 h, read-out: TGI
[5] = test system: NCI-H460 (NSC lung cancer); experiment: NCI-60 screen (SRB, 48 h); conditions: Homo sapiens; for GI50: NCI-H460; for IC (TGI): NCI-H460, 48 h, read-out: TGI
COLO 205 (Colon cancer) = experiment: NCI-60 screen (SRB, 48 h); conditions: Homo sapiens; for GI50: COLO 205; for IC (TGI): COLO 205, 48 h, read-out: TGI
KM12 (Colon cancer) = experiment: NCI-60 screen (SRB, 48 h); conditions: Homo sapiens; for GI50: KM12; for IC (TGI): KM12, 48 h, read-out: TGI; for CC50: KM12, read-out: LC50
SF-295 (CNS cancer) = experiment: NCI-60 screen (SRB, 48 h); conditions: Homo sapiens; for GI50: SF-295; for IC (TGI): SF-295, 48 h, read-out: TGI
SNB-19 (CNS cancer) = experiment: NCI-60 screen (SRB, 48 h); conditions: Homo sapiens; for GI50: SNB-19; for IC (TGI): SNB-19, 48 h, read-out: TGI
SK-MEL-5 (Melanoma) = experiment: NCI-60 screen (SRB, 48 h); conditions: for GI50: SK-MEL-5; for IC (TGI): SK-MEL-5, 48 h, read-out: TGI
IGROV1 (Ovarian cancer) = experiment: NCI-60 screen (SRB, 48 h); conditions: for GI50: IGROV-1; for IC (TGI): IGROV-1, 48 h, read-out: TGI
CAKI-1 (Renal cancer) = experiment: NCI-60 screen (SRB, 48 h); conditions: for GI50 / IC (TGI) / CC50: Homo sapiens; for GI50: CAKI-1; for IC (TGI): CAKI-1, 48 h, read-out: TGI; for CC50: CAKI-1, read-out: LC50
RXF 393 (Renal cancer) = experiment: NCI-60 screen (SRB, 48 h); conditions: for GI50: RXF 393; for IC (TGI): RXF 393, 48 h, read-out: TGI
UO-31 (Renal cancer) = experiment: NCI-60 screen (SRB, 48 h); conditions: Homo sapiens; for GI50: UO-31; for IC (TGI): UO-31, 48 h, read-out: TGI
PC-3 (Prostate cancer) = experiment: NCI-60 screen (SRB, 48 h); conditions: Homo sapiens; for GI50: PC-3; for IC (TGI): PC-3, 48 h, read-out: TGI
MCF7 (Breast cancer) = experiment: NCI-60 screen (SRB, 48 h); conditions: Homo sapiens; for GI50: MCF7; for IC (TGI): MCF7, 48 h, read-out: TGI

## C=C(C)[C@@H]1CC[C@]2(C(=O)N[C@H](CO)Cc3ccccc3)CC[C@]3(C)[C@H](CC[C@@H]4[C@@]5(C)CCCNC(C)(C)[C@@H]5CC[C@]43C)[C@@H]12 [Compound 11]
HL-60(TB) (Leukemia)
  GI50: 200 nM
HL-60(TB) (Leukemia); 48 h
  IC (TGI): 0.46 µM
BT-549 (Breast cancer)
  GI50: 1690 nM
  IC (TGI): 3.32 µM
OVCAR-3 (Ovarian cancer) [1]
  Growth % of the Most Sensitive Cell Lines: −95.88%
OVCAR-3 (Ovarian cancer) [2]
  GI50: 460 nM
  IC (TGI): 1.6 µM
[3]
  GI50: 1520 nM
  IC (TGI): 3.03 µM
  CC50: 6.01 µM
NSC lung cancer subpanel
  IC (TGI): 3.15 µM
  GI50: 1520 nM
  CC50: 6.41 µM
Colon Cancer subpanel
  IC (TGI): 2.18 µM
  GI50: 960 nM
  CC50: 3.76 µM
Renal Cancer subpanel
  IC (TGI): 2.93 µM
  GI50: 1460 nM
  CC50: 5.76 µM
Prostate cancer subpanel
  IC (TGI): 2.75 µM
  GI50: 1320 nM
Breast cancer subpanel
  IC (TGI): 3.16 µM
  GI50: 1410 nM
  CC50: 6.01 µM
MOLT-4 (Leukemia)
  GI50: 670 nM
MOLT-4 (Leukemia); MOLT-4, 48 h, read-out: TGI
  IC (TGI): 2.3 µM
EKVX (NSC lung cancer)
  GI50: 1730 nM
  IC (TGI): 3.49 µM
[4]
  GI50: 1550 nM
  IC (TGI): 2.79 µM
[5]
  GI50: 1210 nM
  IC (TGI): 2.77 µM
COLO 205 (Colon cancer)
  GI50: 1310 nM
  IC (TGI): 2.94 µM
KM12 (Colon cancer)
  GI50: 1470 nM
  IC (TGI): 2.91 µM
  CC50: 5.78 µM
SF-295 (CNS cancer)
  GI50: 1670 nM
  IC (TGI): 3.21 µM
SNB-19 (CNS cancer)
  GI50: 1170 nM
  IC (TGI): 2.72 µM
SK-MEL-5 (Melanoma); Homo sapiens
  GI50: 1670 nM
  IC (TGI): 3.07 µM
SK-MEL-5 (Melanoma); Homo sapiens, SK-MEL-5, read-out: LC50
  CC50: 5.64 µM
SK-MEL-5 (Melanoma); SK-MEL-5, 1 dose 10 µM
  Growth % of the Most Sensitive Cell Lines: −95.48%
IGROV1 (Ovarian cancer); Homo sapiens
  GI50: 1830 nM
  IC (TGI): 3.61 µM
CAKI-1 (Renal cancer)
  GI50: 1490 nM
  IC (TGI): 2.89 µM
  CC50: 5.6 µM
RXF 393 (Renal cancer); Homo sapiens
  GI50: 1670 nM
  IC (TGI): 3.27 µM
UO-31 (Renal cancer)
  GI50: 1500 nM
  IC (TGI): 2.96 µM
PC-3 (Prostate cancer)
  GI50: 1160 nM
  IC (TGI): 2.62 µM
MCF7 (Breast cancer)
  GI50: 490 nM
  IC (TGI): 2.06 µM

## C=C(C)[C@@H]1CCC=C2CC[C@]3(C)[C@H](CC[C@@H]4[C@@]5(C)CCCNC(C)(C)[C@@H]5CC[C@]43C)[C@H]21 [Compound 8]
BT-549 (Breast cancer)
  GI50: 1680 nM
  IC (TGI): 3.23 µM
OVCAR-3 (Ovarian cancer) [1]
  Growth % of the Most Sensitive Cell Lines: −93.30%
OVCAR-3 (Ovarian cancer) [2]
  GI50: 1790 nM
  IC (TGI): 3.4 µM
[3]
  GI50: 1780 nM
  IC (TGI): 3.43 µM
  CC50: 6.6 µM
NSC lung cancer subpanel
  IC (TGI): 3.3 µM
  GI50: 1730 nM
  CC50: 6.18 µM
Colon Cancer subpanel
  IC (TGI): 3.02 µM
  GI50: 1510 nM
  CC50: 5.87 µM
Renal Cancer subpanel
  IC (TGI): 3.34 µM
  GI50: 1790 nM
  CC50: 6.18 µM
Prostate cancer subpanel
  IC (TGI): 3.2 µM
  GI50: 1710 nM
Prostate cancer subpanel; read-out: LC50 MG_MID
  CC50: 5.97 µM
Breast cancer subpanel
  IC (TGI): 3.47 µM
  GI50: 1710 nM
  CC50: 8.38 µM
MOLT-4 (Leukemia)
  GI50: 1090 nM
EKVX (NSC lung cancer)
  GI50: 1660 nM
  IC (TGI): 3.21 µM
[4]
  GI50: 1730 nM
  IC (TGI): 3.14 µM
[4]; read-out: LC50
  CC50: 5.7 µM
[5]
  GI50: 1220 nM
  IC (TGI): 2.81 µM
COLO 205 (Colon cancer)
  GI50: 1380 nM
  IC (TGI): 2.79 µM
COLO 205 (Colon cancer); COLO 205, read-out: LC50
  CC50: 5.64 µM
KM12 (Colon cancer)
  GI50: 1930 nM
  IC (TGI): 3.6 µM
  CC50: 6.71 µM
SF-295 (CNS cancer)
  GI50: 1810 nM
  IC (TGI): 3.26 µM
SF-295 (CNS cancer); SF-295, read-out: LC50
  CC50: 5.88 µM
SNB-19 (CNS cancer)
  GI50: 1930 nM
  IC (TGI): 3.44 µM
SK-MEL-5 (Melanoma); Homo sapiens
  GI50: 1700 nM
  IC (TGI): 3.14 µM
IGROV1 (Ovarian cancer); Homo sapiens
  GI50: 1690 nM
  IC (TGI): 3.28 µM
IGROV1 (Ovarian cancer); Homo sapiens, IGROV-1, read-out: LC50
  CC50: 6.35 µM
IGROV1 (Ovarian cancer); IGROV1, 1 dose 10 µM
  Growth % of the Most Sensitive Cell Lines: −94.22%
CAKI-1 (Renal cancer); CAKI-1, 1 dose 10 µM
  Growth % of the Most Sensitive Cell Lines: −92.49%
CAKI-1 (Renal cancer)
  GI50: 1810 nM
  IC (TGI): 3.22 µM
  CC50: 5.73 µM
RXF 393 (Renal cancer); Homo sapiens
  GI50: 1740 nM
  IC (TGI): 3.32 µM
RXF 393 (Renal cancer); Homo sapiens, RXF 393, read-out: LC50
  CC50: 6.33 µM
RXF 393 (Renal cancer); RXF 393, 1 dose 10 µM
  Growth % of the Most Sensitive Cell Lines: −91.86%
UO-31 (Renal cancer)
  GI50: 1520 nM
  IC (TGI): 2.89 µM
UO-31 (Renal cancer); UO-31, read-out: LC50
  CC50: 5.52 µM
PC-3 (Prostate cancer)
  GI50: 1650 nM
  IC (TGI): 3.06 µM
PC-3 (Prostate cancer); PC-3, read-out: LC50
  CC50: 5.68 µM
MCF7 (Breast cancer)
  GI50: 1370 nM
  IC (TGI): 2.92 µM
MCF7 (Breast cancer); MCF7, read-out: LC50
  CC50: 6.22 µM
